Converted amounts (≈) assume the structure as drawn. Values belong to the compound of their own block, whether it stands above or below them.
Tests used:
Test in all cases: ≥ marks a high value that may be exact or a test limit, other limits are often not marked, values filed in µg/mL are converted to µM
[1] = system: Enterococcus faecalis NCTC 12697
[2] = system: Staphylococcus aureus NCTC 12493
[3] = system: Pseudomonas aeruginosa ATCC 27853
[4] = system: Staphylococcus aureus NCTC 10788
[5] = system: Escherichia coli NCTC 10418
[6] = system: Candida albicans NCYC 1467
[7] = system: Acinetobacter baumannii NM8
[8] = system: Acinetobacter baumannii NM109
[9] = system: Acinetobacter baumannii NM75
[10] = system: Staphylococcus aureus ATCC 25923
[11] = system: Escherichia coli ATCC 25726
[12] = system: Acinetobacter baumannii NM35
[13] = system: Acinetobacter baumannii NM124
[14] = system: Candida albicans ATCC 90028
Acinetobacter baumannii = system: Acinetobacter baumannii
[15] = system: Pseudomonas aeruginosa H1001
Escherichia coli K91BK = system: Escherichia coli K91BK
[16] = system: Bacillus subtilis var. niger ATCC 9372
[17] = system: Bacillus anthracis Sterne 34F2
Staphylococcus aureus = system: Staphylococcus aureus
Proteus mirabilis = system: Proteus mirabilis
Streptococcus pyogenes = system: Streptococcus pyogenes
Pseudomonas aeruginosa = system: Pseudomonas aeruginosa

SMILES: CSCC[C@H](NC(=O)[C@H](CC(=O)O)NC(=O)[C@@H](NC(=O)[C@@H](NC(=O)[C@H](C)NC(=O)[C@H](CC(N)=O)NC(=O)[C@H](CC(C)C)NC(=O)[C@H](C)NC(=O)[C@H](C)NC(=O)[C@H](CCCCN)NC(=O)CNC(=O)[C@H](C)NC(=O)[C@H](C)NC(=O)[C@H](CCCCN)NC(=O)CNC(=O)[C@@H](NC(=O)[C@H](CC(N)=O)NC(=O)[C@H](CCCCN)NC(=O)[C@H](CC(C)C)NC(=O)[C@H](CC(C)C)NC(=O)[C@H](CO)NC(=O)[C@H](CCCCN)NC(=O)[C@H](Cc1c[nH]c2ccccc12)NC(=O)[C@H](CC(C)C)NC(=O)[C@H](C)N)C(C)C)C(C)C)[C@@H](C)O)C(=O)N[C@H](C(=O)N[C@@H](CC(N)=O)C(=O)N[C@@H](CCC(N)=O)C(N)=O)C(C)C [ALWKSLLKNVGKAAGKAALNAVTDMVNQ]
- MIC [1]: ≥ 64 µM
- MIC [2]: 4 µM (≈ 11.6 µg/mL)
- MIC [3]: 4 µM (≈ 11.6 µg/mL)
- MIC [4]: 4 µM (≈ 11.6 µg/mL)
- MIC [5]: 4 µM (≈ 11.6 µg/mL)
- MIC [6]: 4 µM (≈ 11.6 µg/mL)

SMILES: CC[C@H](C)[C@H](NC(=O)CNC(=O)CNC(=O)[C@H](C)NC(=O)[C@@H](NC(=O)[C@H](CCCCN)NC(=O)[C@@H]1CCCN1C(=O)[C@@H](NC(=O)[C@H](CC(C)C)NC(=O)[C@H](CO)NC(=O)[C@H](CC(C)C)NC(=O)[C@@H](N)Cc1ccccc1)[C@@H](C)CC)[C@@H](C)CC)C(=O)N[C@@H](C)C(=O)N[C@@H](C)C(=O)N[C@@H](CC(C)C)C(=O)N[C@@H](C)C(=O)N[C@@H](CCCCN)C(=O)N[C@@H](Cc1cnc[nH]1)C(=O)N[C@@H](CC(C)C)C(N)=O [FLSLIPKIAGGIAALAKHL]
- MIC [1]: 16.6 µM (≈ 32 µg/mL)
- MIC [2]: 4.14 µM (≈ 8 µg/mL)
- MIC [4]: 4.14 µM (≈ 8 µg/mL)
- MIC [5]: 16.6 µM (≈ 32 µg/mL)
- MIC [6]: 2.07 µM (≈ 4 µg/mL)

SMILES: CC[C@H](C)[C@H](NC(=O)CN)C(=O)N[C@@H](Cc1c[nH]c2ccccc12)C(=O)N[C@@H](CCCCN)C(=O)N[C@H](C(=O)N[C@H](C(=O)N[C@@H](CCCCN)C(=O)N[C@@H](CO)C(=O)N[C@@H](CCSC)C(=O)NCC(=O)N[C@@H](CCCCN)C(=O)N[C@H](C(=O)N[C@@H](Cc1ccccc1)C(=O)N[C@@H](C)C(=O)NCC(=O)N[C@@H](C)C(=O)N[C@H](C(=O)N[C@@H](CCCCN)C(=O)N[C@@H](CCC(N)=O)C(=O)N[C@@H](CC(N)=O)C(=O)N[C@@H](CC(C)C)C(N)=O)[C@@H](C)CC)C(C)C)[C@@H](C)CC)[C@@H](C)O [GIWKTIKSMGKVFAGAIKQNL]
- MIC [7]: 3 µM (≈ 6.87 µg/mL)
- MIC [8]: 3 µM (≈ 6.87 µg/mL)
- MIC [9]: 3 µM (≈ 6.87 µg/mL)
- MIC [10]: 100 µM (≈ 229 µg/mL)
- MIC [11]: 12.5 µM (≈ 28.6 µg/mL)
- MIC [12]: 3 µM (≈ 6.87 µg/mL)
- MIC [13]: 3 µM (≈ 6.87 µg/mL)
- MIC [14]: 12.5 µM (≈ 28.6 µg/mL)
- MIC (Acinetobacter baumannii): 6.25 µM (≈ 14.3 µg/mL)

SMILES: CC(=O)N[C@@H](CCCCN)C(=O)N[C@@H](Cc1c[nH]c2ccccc12)C(=O)N[C@@H](CCCCN)C(=O)N[C@@H](CCCCN)C(=O)N[C@@H](CC(C)C)C(=O)N[C@@H](CC(C)C)C(=O)N[C@@H](CCCCN)C(=O)N[C@@H](CCCCN)C(=O)N1CCC[C@H]1C(=O)N[C@@H](CC(C)C)C(=O)N[C@@H](CC(C)C)C(=O)N[C@@H](CCCCN)C(=O)N[C@@H](CCCCN)C(=O)N[C@@H](CC(C)C)C(=O)N[C@@H](CC(C)C)C(=O)N[C@@H](CCCCN)C(=O)N[C@@H](CCCCN)C(=O)N[C@@H](CC(C)C)C(N)=O [KWKKLLKKPLLKKLLKKL]
- MIC (Escherichia coli K91BK): ≥ 100 µM
- MIC [16]: 3.13 µM (≈ 7.16 µg/mL)
- MIC [17]: ≥ 100 µM

SMILES: CC(=O)N[C@@H](Cc1c[nH]c2ccccc12)C(=O)N[C@@H](CCCN=C(N)N)C(=O)N[C@@H](CO)C(=O)N[C@@H](CC(C)C)C(=O)NCC(=O)N[C@@H](CCCN=C(N)N)C(=O)N[C@H](C(=O)N[C@@H](CC(C)C)C(=O)N[C@@H](CC(C)C)C(=O)N[C@@H](CCCN=C(N)N)C(=O)N[C@@H](CC(C)C)C(=O)N[C@@H](CO)C(=O)N[C@@H](Cc1cnc[nH]1)C(=O)N[C@@H](C)C(=O)N[C@@H](CC(C)C)C(=O)N[C@@H](CCCCN)C(=O)N1CCC[C@H]1C(=O)N[C@@H](CC(C)C)C(=O)N[C@@H](C)C(=O)N[C@@H](CCCN=C(N)N)C(=O)N[C@@H](CCCN=C(N)N)C(=O)N[C@@H](CO)C(=O)NCC(=O)N[C@@H](Cc1c[nH]c2ccccc12)C(N)=O)[C@@H](C)O [WRSLGRTLLRLSHALKPLARRSGW]
- MIC (Escherichia coli K91BK): ≥ 100 µM
- MIC [16]: 2.1 µM (≈ 6.03 µg/mL)
- MIC [17]: 7.87 µM (≈ 22.6 µg/mL)

Other lines, results leading:

- MIC [7]: 6 µM (≈ 14.1 µg/mL)
- MIC [8]: 6 µM (≈ 14.1 µg/mL)
- MIC [9]: 3 µM (≈ 7.04 µg/mL)
- MIC [10]: 100 µM (≈ 235 µg/mL)
- MIC [11]: 25 µM (≈ 58.7 µg/mL)
- MIC [12]: 6 µM (≈ 14.1 µg/mL)
- MIC [13]: 6 µM (≈ 14.1 µg/mL)
- MIC [14]: 12.5 µM (≈ 29.3 µg/mL)
- MIC (Acinetobacter baumannii): 6.25 µM (≈ 14.7 µg/mL)
SMILES: CC[C@H](C)[C@H](NC(=O)CN)C(=O)N[C@@H](Cc1c[nH]c2ccccc12)C(=O)N[C@@H](CCCCN)C(=O)N[C@H](C(=O)N[C@H](C(=O)N[C@@H](CCCCN)C(=O)N[C@@H](CO)C(=O)N[C@@H](CCSC)C(=O)NCC(=O)N[C@@H](CCCCN)C(=O)N[C@H](C(=O)N[C@@H](Cc1ccccc1)C(=O)N[C@@H](C)C(=O)NCC(=O)N[C@@H](CCCCN)C(=O)N[C@H](C(=O)N[C@@H](CCCCN)C(=O)N[C@@H](CCC(N)=O)C(=O)N[C@@H](CC(N)=O)C(=O)N[C@@H](CC(C)C)C(N)=O)[C@@H](C)CC)C(C)C)[C@@H](C)CC)[C@@H](C)O [GIWKTIKSMGKVFAGKIKQNL]

- MIC [15]: ≥ 40.4 µM
SMILES: CC[C@H](C)[C@H](NC(=O)[C@H](CCCCN)NC(=O)[C@H](CCCCN)NC(=O)[C@H](Cc1cnc[nH]1)NC(=O)[C@@H](NC(=O)[C@H](CCCN=C(N)N)NC(=O)[C@H](CS)NC(=O)[C@H](CC(C)C)NC(=O)[C@H](CC(C)C)NC(=O)[C@@H](N)CCCCN)C(C)C)C(=O)O [KLLCRVHKKI]

- MIC [15]: ≥ 89 µM
SMILES: NCCCC[C@H](NC(=O)[C@H](CCCCN)NC(=O)[C@H](Cc1c[nH]c2ccccc12)NC(=O)[C@H](CCCCN)NC(=O)[C@H](Cc1c[nH]c2ccccc12)NC(=O)[C@H](Cc1c[nH]c2ccccc12)NC(=O)[C@H](CCCCN)NC(=O)[C@H](Cc1c[nH]c2ccccc12)NC(=O)[C@@H](N)CCCCN)C(N)=O [KWKWWKWKK]

- MIC [3]: > 249 µM
- MIC [4]: ≥ 62.2 µM
- MIC [5]: ≥ 62.2 µM
- MIC [6]: 31.1 µM (≈ 64 µg/mL)
SMILES: CC[C@H](C)[C@H](NC(=O)[C@H](CC(C)C)NC(=O)[C@H](C)NC(=O)[C@H](CO)NC(=O)[C@@H](NC(=O)[C@H](CC(C)C)NC(=O)[C@@H](N)CC(N)=O)C(C)C)C(=O)N[C@@H](CCC(=O)O)C(=O)NCC(=O)N[C@@H](CCCN=C(N)N)C(=O)N[C@@H](CCCCN)C(=O)N[C@@H](Cc1ccc(O)cc1)C(=O)N[C@@H](CC(C)C)C(=O)N[C@@H](CCCCN)C(=O)N[C@@H](CC(N)=O)C(=O)N[C@H](C(=O)N[C@@H](CC(C)C)C(=O)N[C@@H](CCCCN)C(=O)O)C(C)C [NLVSALIEGRKYLKNVLK]

- MIC (Staphylococcus aureus): 3.98 µM (≈ 8 µg/mL)
- MIC (Proteus mirabilis): 31.8 µM (≈ 64 µg/mL)
- MIC (Streptococcus pyogenes): 0.807 µM (≈ 1.62 µg/mL)
- MIC (Pseudomonas aeruginosa): > 31.8 µM
SMILES: NC(N)=NCCC[C@H](NC(=O)[C@H](CCCN=C(N)N)NC(=O)[C@H](CCCN=C(N)N)NC(=O)[C@H](CCCN=C(N)N)NC(=O)[C@H](Cc1c[nH]c2ccccc12)NC(=O)[C@H](Cc1c[nH]c2ccccc12)NC(=O)[C@H](Cc1c[nH]c2ccccc12)NC(=O)[C@H](Cc1c[nH]c2ccccc12)NC(=O)[C@H](CCCN=C(N)N)NC(=O)[C@H](CCCN=C(N)N)NC(=O)[C@H](CCCN=C(N)N)NC(=O)[C@@H](N)CCCN=C(N)N)C(=O)O [RRRRWWWWRRRR]

- MIC [15]: 0.0886 µM (≈ 0.22 µg/mL)
SMILES: CC[C@H](C)[C@H](NC(=O)[C@H](CCCN=C(N)N)NC(=O)[C@H](CCCN=C(N)N)NC(=O)[C@@H]1CCCN1C(=O)[C@H](CCSC)NC(=O)[C@H](CCCN=C(N)N)NC(=O)[C@@H]1CCCN1C(=O)[C@H](CCCN=C(N)N)NC(=O)[C@@H]1CCCN1C(=O)[C@H](CC(C)C)NC(=O)[C@H](Cc1ccc(O)cc1)NC(=O)[C@@H]1CCCN1C(=O)[C@@H]1CCCN1C(=O)[C@H](CCCCN)NC(=O)[C@H](CC(=O)O)NC(=O)[C@@H](N)C(C)C)C(=O)N[C@@H](Cc1ccc(O)cc1)C(=O)N[C@@H](CC(N)=O)C(=O)N[C@@H](CCCN=C(N)N)C(=O)NCC(=O)O [VDKPPYLPRPRMPRRIYNRG]

- MIC (Staphylococcus aureus): 22 µM (≈ 32 µg/mL)
- MIC (Proteus mirabilis): ≥ 44 µM
- MIC (Streptococcus pyogenes): 2.75 µM (≈ 4 µg/mL)
- MIC (Pseudomonas aeruginosa): > 44 µM
SMILES: NC(N)=NCCC[C@H](NC(=O)[C@H](CCCN=C(N)N)NC(=O)[C@H](CCCN=C(N)N)NC(=O)[C@H](CCCN=C(N)N)NC(=O)[C@H](CCCN=C(N)N)NC(=O)[C@H](CCCN=C(N)N)NC(=O)[C@H](CCCN=C(N)N)NC(=O)[C@H](CCCN=C(N)N)NC(=O)[C@@H](N)Cc1c[nH]c2ccccc12)C(=O)O [WRRRRRRRR]

Reference: DBAASP
